Measured values taken from the supplement of paper PMC10307832.

Columns and labels:
Test in all cases: relative viability (nuclei count vs DMSO), 5 days (fraction); higher = more cells survive
[1] = compound: C1CNCCC1C2=CC(=NN2)C3=CC=NC=C3 + N=C(N)NC(=N)NCCc1ccccc1 [Phenformin] (partner 250 µM)
In short: (§1)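 For relative viability, nuclei counts in treated wells were divided by those in vehicle wells. Lung cancer cell lines had been pin-tool dosed in 1536-well plates the day after seeding and cultured for 5 days, then fixed and stained in one step (final 0.05% Triton X-100, 1% formaldehyde, 1 ug/ml Hoechst) and imaged at 4×. Doses were one drug alone or a fixed anchor-drug dose plus five library-drug doses (not always all listed) in √10 steps, and values are duplicate-plate medians.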

[2] = compound: C[C@@H](N)c1ccc(C(=O)Nc2ccnc3[nH]ccc23)cc1 + CC(=O)Nc1cccc(-n2c(=O)n(C3CC3)c(=O)c3c(Nc4ccc(I)cc4F)n(C)c(=O)c(C)c32)c1 [Trametinib] (partner 0.02 µM)
In short: as §1

[3] = compound: C[C@@H](N)c1ccc(C(=O)Nc2ccnc3[nH]ccc23)cc1 + CCNC(=O)c1noc(-c2cc(C(C)C)c(O)cc2O)c1-c1ccc(CN2CCOCC2)cc1 [Luminespib] (partner 0.01 µM)
In short: as §1

[4] = compound: C1CNCCC1C2=CC(=NN2)C3=CC=NC=C3 + CC1(C)CCC(c2ccc(Cl)cc2)=C(CN2CCN(c3ccc(C(=O)NS(=O)(=O)c4ccc(N[C@H](CCN5CCOCC5)CSc5ccccc5)c(S(=O)(=O)C(F)(F)F)c4)cc3)CC2)C1 [Navitoclax] (partner 0.5 µM)
In short: as §1

Row | Cell Line | relative viability ([1]; first compound 0.08 µM) | relative viability ([1]; first compound 0.8 µM) | relative viability ([1]; first compound 2.53 µM) | relative viability ([1]; first compound 8 µM) | relative viability ([2]; first compound 0.04 µM) | relative viability ([2]; first compound 0.1265 µM) | relative viability ([2]; first compound 0.4 µM) | relative viability ([2]; first compound 1.265 µM) | relative viability ([2]; first compound 4 µM) | relative viability ([3]; first compound 0.04 µM) | relative viability ([3]; first compound 0.1265 µM) | relative viability ([3]; first compound 0.4 µM) | relative viability ([3]; first compound 1.265 µM) | relative viability ([3]; first compound 4 µM) | relative viability ([4]; first compound 0.08 µM) | relative viability ([4]; first compound 0.8 µM) | relative viability ([4]; first compound 2.53 µM) | relative viability ([4]; first compound 8 µM)
1 | NCI-H1355 | 0.482 | 0.463 | 0.49 | 0.456 | 0.482 | 0.427 | 0.446 | 0.433 | 0.393 | 0.759 | 0.72 | 0.807 | 0.66 | 0.625 | 0.919 | 0.813 | 1.09 | 0.871
2 | NCI-H1666 | 0.571 | 0.587 | 0.561 | 0.553 | 0.852 | 0.903 | 0.981 | 0.916 | 0.926 | 1.02 | 1.03 | 1.13 | 1.4 | 1.16 | 0.807 | 0.877 | 1.06 | 1.02
3 | EPLC-272H | 0.317 | 0.299 | 0.35 | 0.396 | 0.299 | 0.283 | 0.358 |  | 0.267 | 0.402 | 0.602 | 0.188 | 0.491 | 0.405 | 1.12 | 1.22 | 1.19 | 1.17
4 | ChaGo-K-1 | 0.458 | 0.527 | 0.462 | 0.462 | 0.888 | 0.863 | 0.823 | 0.894 | 0.789 | 0.554 | 0.641 | 0.629 | 0.562 | 0.436 | 0.861 | 1.29 | 0.682 | 1.01
5 | NCI-H1651 | 0.351 | 0.3 | 0.333 | 0.344 | 0.877 | 0.862 | 0.959 | 0.941 | 0.848 | 0.806 | 0.734 | 1.1 | 1.02 | 0.826 | 0.897 | 1.07 | 0.963 | 1.16
6 | HCC-44 | 0.31 | 0.194 | 0.276 | 0.322 | 1.08 | 1.11 | 1.18 | 1.16 | 0.952 | 0.922 | 1.11 | 1.31 | 1.21 | 0.486 | 0.931 | 1 | 1.07 | 0.971
7 | SW 1573 |  | 0.365 | 0.376 | 0.471 | 0.767 | 0.615 | 0.598 | 0.56 | 0.529 | 0.311 | 0.37 | 0.212 | 0.304 | 0.249 | 0.778 | 1.2 | 1.19 | 1.09
8 | PC-3 [JPC-3] | 0.499 | 0.447 | 0.494 | 0.463 | 0.656 | 0.695 | 0.732 | 0.651 | 0.549 | 0.714 | 0.68 | 0.73 | 0.846 | 0.607 | 0.835 | 0.905 | 0.818 | 0.786
9 | LOU-NH91 | 0.771 | 0.787 | 0.867 | 0.781 | 0.746 | 0.796 | 0.739 | 0.644 | 0.539 | 0.283 | 0.334 | 0.381 | 0.33 | 0.316 | 0.653 | 0.762 | 0.866 | 0.703
10 | PC-14 | 0.529 | 0.684 | 0.743 | 0.579 | 0.736 | 0.656 | 0.497 |  | 0.431 |  | 0.183 | 0.154 |  | 0.132 | 0.987 | 1.13 | 1.06 | 0.979
11 | NCI-H2087 | 0.459 | 0.479 | 0.496 | 0.479 | 0.284 | 0.214 | 0.202 | 0.229 | 0.251 | 0.152 | 0.153 | 0.126 |  | 0.174 | 1.04 | 0.973 | 0.969 | 0.903
12 | LU99A | 0.748 | 0.877 | 0.956 | 0.874 |  | 0.586 | 0.52 | 0.477 | 0.483 |  | 0.303 | 0.323 | 0.251 | 0.292 | 0.662 | 0.872 | 0.776 | 0.732
13 | BEN | 0.312 | 0.172 | 0.243 | 0.271 | 1.01 | 0.87 | 0.984 | 1.37 | 0.85 | 0.369 | 0.332 | 0.44 | 0.29 | 0.286 | 0.0512 | 0.0642 | 0.0601 | 0.0843
14 | SK-LU-1 | 0.498 | 0.41 | 0.529 | 0.57 | 0.422 | 0.506 | 0.625 | 0.299 | 0.473 | 0.229 | 0.208 | 0.187 | 0.176 | 0.163 | 1.25 | 0.913 | 0.85 | 0.88
15 | NCI-H1975 | 0.406 | 0.412 | 0.415 | 0.417 | 0.286 | 0.4 | 0.449 | 0.194 | 0.233 | 0.211 | 0.26 | 0.114 | 0.181 | 0.146 | 1.18 | 1.2 | 1.19 | 1.09
16 | RERF-LC-KJ | 0.391 | 0.429 | 0.438 | 0.406 | 0.902 | 0.972 | 0.971 | 0.96 | 0.873 | 1.22 | 1.3 | 1.26 | 1.2 | 1.25 | 1.05 | 1.01 | 0.76 | 0.94
17 | NCI-H441 | 0.634 | 0.947 | 0.831 | 0.753 | 0.522 | 0.61 | 0.478 | 0.38 | 0.405 | 0.451 | 0.342 | 0.326 |  | 0.403 |  | 0.915 | 0.836 | 0.704
18 | NCI-H1915 | 0.376 | 0.389 | 0.346 | 0.377 |  | 0.299 | 0.298 |  | 0.239 | 0.825 | 0.817 | 0.869 |  | 0.629 | 0.798 | 0.784 | 0.78 | 0.778
